{"source": "patent US10363231B2", "about": "“Compounds and methods of treating ocular disorders” (CASE WESTERN RESERVE UNIVERSITY, priority 2014, dated 2019)", "key": {"Abca4^−/−Rdh8^−/− mice [1]": {"test_system": "Abca4^−/−Rdh8^−/− mice", "test": "Light-induced acute retinal degeneration in Abca4−/−Rdh8−/− mice (OCT, 11-cis-retinal, ERG)", "assay_type": "in vivo", "conditions": "for OCT imaging of the retina: 3 d after bleaching; for average ONL thickness: OCT 3 d after bleaching", "protocol": "Abca4^−/−Rdh8^−/− double knockout mice were generated as previously described. Mice were housed in the animal facility at the School of Medicine, Case Western Reserve University, where they were maintained under either complete darkness or in a 12-h light (˜300 lux) and 12-h dark cycle. All tested primary amines were suspended in 100 μl of soybean oil with less than 10% (v/v) DMSO and were administered by oral gavage with a 22-gauge feeding needle. Experimental manipulations in the dark were done under dim red light transmitted through a Kodak No. 1 safelight filter (transmittance >560 nm). All animal procedures and experiments were approved by the Case Western Reserve University Animal Care Committees and conformed to recommendations of the American Veterinary Medical Association Panel on Euthanasia and the Association of Research for Vision and Ophthalmology.\nAfter dark adaptation for 24 h, 4-week-old male or female Abca4^−/−Rdh8^−/− mice with pupils dilated by 1% tropicamide were exposed to fluorescent light (10,000 lx; 150 W spiral lamp, Commercial Electric) for 1 h in a white paper bucket (Papersmith), and then kept in the dark for an additional 3 d. Development of retinal degeneration was then examined by ultra-high resolution spectral-domain OCT (SDOCT; Bioptigen) and ERGs as previously described.\nThen animals were euthanized and their eyes were collected and homogenized in 10 mM sodium phosphate buffer, pH 7.4, containing 50% methanol (v/v) and 40 mM hydroxylamine. The resulting mixture was extracted with 4 ml of hexanes. Extracts were dried in vacuo, reconstituted in 300 μl of hexanes and 100 μl of the extract was injected into an HPLC for analysis with 10% (v/v) ethyl acetate in hexanes.\nFor practical reasons, only eight of these leading compounds (QEA-B-001-NH2, B-002-NH2, C-001-NH2, C-003-NH2, C006-NH2, E-002-NH2, TEA-B-002-NH2, and C00-2-NH2) along with retinylamine as a control were selected for further testing in Abca4^−/−Rdh8^−/− mice, an animal model for light-induced retinal degeneration (Table 2). Additionally, two novel amines with moderate inhibition of RPE65 (QEA-A-006-NH2 and QEA-B-003-NI 12) and one with strong inhibition (QEA-A-005-NH2) were added to the first test group for comparison. Mice were gavaged with 1 mg of a test compound and then kept in the dark for 24 h prior to being exposed to bright light (˜10,000 lux) for 1 h. Retinal damage was assessed with OCT that measured the thickness of the outer nuclear layer and by quantification of tissue 11-cis retinal levels. An example is shown for imaging results in FIG. 4A and for 11-cis-retinal quantification in FIG. 4B. Additionally, extracts of livers obtained from treated mice were analyzed by HPLC to estimate the amounts of corresponding amides (FIG. 4C).\nOnce the time course of retinylamine's inhibitory effect was established, we investigated the correlation between the level of inhibition and the protective effect on the retina. Four week old Abca4^−/−Rdh8^−/− mice were gavaged with 0.1, 0.2, and 0.5 mg of retinylamine, respectively, and kept in the dark for 24 h. Mice then were bleached with 10,000 lux bright light for 1 h. Measured as described above, the recovery of visual chromophore was inhibited by about 40%, 80%, and 95%, respectively by these tested drug doses (FIGS. 5B and 5C). Bleached mice were kept in the dark for 3 d, and then imaged by OCT (FIGS. 6A and 6B). […] The average ONL thickness in the latter group of mice was 51.1±5.8 μm, well within the range of healthy retinas. […] Their average ONL thickness was 34.4±17.4 μm. […] In an equivalent experiment, mice were kept in the dark for 7 days prior to quantification of visual chromophore levels. (Amounts of 11-cis-retinal reflect the concentration of rhodopsin and thus can be used to verify the health of photoreceptor cells)."}, "WT mice": {"test_system": "WT mice", "test": "Visual chromophore recovery assay (inhibition of the visual cycle in vivo)", "conditions": "for inhibition of the recovery of visual chromophore: 24 h after gavage; for recovery of 11-cis-retinal in the eye, of the pre-bleached level: at 6 h after bleaching"}, "RPE65": {"target": "T1, RPE65 (Bos taurus, UniProt Q28175)", "T1 construct": "from tissue; host or cells: bovine retinal pigment epithelium (RPE) microsomes", "T1 sequence (Q28175 whole entry)": "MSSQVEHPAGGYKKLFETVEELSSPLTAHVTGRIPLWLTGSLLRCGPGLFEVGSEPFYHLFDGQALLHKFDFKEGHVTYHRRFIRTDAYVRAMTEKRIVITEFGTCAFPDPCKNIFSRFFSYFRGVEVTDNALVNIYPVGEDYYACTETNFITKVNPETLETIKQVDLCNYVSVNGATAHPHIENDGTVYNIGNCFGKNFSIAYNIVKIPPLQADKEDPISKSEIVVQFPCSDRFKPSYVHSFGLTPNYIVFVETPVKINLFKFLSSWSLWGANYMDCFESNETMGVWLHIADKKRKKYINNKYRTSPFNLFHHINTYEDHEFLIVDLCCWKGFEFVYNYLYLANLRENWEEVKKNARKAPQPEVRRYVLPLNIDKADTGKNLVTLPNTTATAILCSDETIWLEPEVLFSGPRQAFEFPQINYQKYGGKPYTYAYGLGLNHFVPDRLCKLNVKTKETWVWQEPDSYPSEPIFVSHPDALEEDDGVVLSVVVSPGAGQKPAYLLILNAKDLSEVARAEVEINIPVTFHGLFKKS", "test": "Retinoid isomerase activity assay (11-cis-retinol production in RPE microsomes)", "assay_type": "biochemical, Bovine", "conditions": "for pIC50: primary amine, decline in 11-cis-retinol production in RPE microsomes, read-out: Inhibition of RPE65", "protocol": "Bovine RPE microsomes were isolated from RPE homogenates by differential centrifugation as previously described. The resulting microsomal precipitate was resuspended in 10 mM Bis-Tris propane/HCl buffer, pH 7.4, to achieve a total protein concentration of […]. Then the mixture was placed in a quartz cuvette and irradiated for 6 min at 4° C. with a ChromatoUVE transilluminator (model TM-15; UVP) to eliminate residual retinoids. After irradiation, DTT was added to the RPE microsomal mixture to achieve a final concentration of 5 mM.\n[…] The resulting mixture was pre incubated at room temperature for 5 min. Then 1 μl of all-trans-retinol (in DMF, final concentration 20 μM) was added. The resulting mixture was incubated at 37° C. for 15 min to 2 h. The reaction was quenched by adding 300 μl of methanol, and products were extracted with 300 μl of hexanes. Production of 11-cis-retinol was quantified by normal phase HPLC with 10% (v/v) ethyl acetate in hexanes as the eluent at a flow rate of 1.4 ml·min^−1. Retinoids were detected by monitoring their absorbance at 325 nm and quantified based on a standard curve representing the relationship between the amount of 11-cis-retinol and the area under the corresponding chromatographic peak.\nPrimary amines of compounds derived from the aldehydes were subsequently tested for their ability to inhibit the RPE65-dependent retinoid isomerization reaction in dose- and time dependent reactions as exemplified by QEB-B-001 (FIG. 3B). Amines were incubated with RPE microsomes in the presence of all-trans-retinol and the 11-cis-retinoid binding protein, CRALBP.\nProgress of the enzymatic reaction was monitored by HPLC separation of retinoids and quantification of 11-cis-retinol with a decrease of 11-cis-retinol production reflecting inhibition of RPE65 by a tested amine. […] This moderate inhibition could be enhanced by shortening the polyene chain length (TEA amines) or diminished by introducing an extra positive charge into the tested compounds (QEA-G amines)."}, "Abca4^−/−Rdh8^−/− mice [2]": {"test_system": "Abca4^−/−Rdh8^−/− mice", "test": "Light-induced acute retinal degeneration in Abca4−/−Rdh8−/− mice (OCT, 11-cis-retinal, ERG)", "assay_type": "in vivo", "conditions": "2 mg; dark 24 h, then 10,000 lux 1 h"}, "[3]": {"conditions": "0.1 mg, dark 7 days after bleaching"}, "[4]": {"conditions": "0.2 mg, dark 7 days after bleaching"}}, "note": "pIC50: −log10 of the molar value. Entries after “also recorded” stand apart in the source; their conditions may differ.", "data": [{"smiles": "CC1=C(/C=C/C(C)=C/C=C/C(C)=C/CN)C(C)(C)CCC1", "note": "[QEA-A-001-NH2, retinylamine]", "values": [{"measurement": "protection against retinal degeneration", "setting": "Abca4^−/−Rdh8^−/− mice [1]; 0.1 mg dose, bright light exposure", "value": "failed to protect"}, {"measurement": "OCT imaging of the retina", "setting": "Abca4^−/−Rdh8^−/− mice [1]; 0.1 mg", "value": "severe retinal degeneration"}, {"measurement": "11-cis-retinal levels", "setting": "Abca4^−/−Rdh8^−/− mice [1]; [3]", "value": "323±48", "unit": "pmol/eye"}, {"measurement": "ERG responses", "setting": "Abca4^−/−Rdh8^−/− mice [1]; [3]", "value": "attenuated ERG responses"}, {"measurement": "OCT imaging of the retina", "setting": "Abca4^−/−Rdh8^−/− mice [1]; 0.2 mg", "value": "partially protected"}, {"measurement": "average ONL thickness", "setting": "Abca4^−/−Rdh8^−/− mice [1]; 0.2 mg", "value": "34.4±17.4", "unit": "μm"}, {"measurement": "11-cis-retinal levels", "setting": "Abca4^−/−Rdh8^−/− mice [1]; [4]", "value": "445±37", "unit": "pmol/eye"}, {"measurement": "ERG scotopic a wave responses", "setting": "Abca4^−/−Rdh8^−/− mice [1]; [4]", "value": "same ERG scotopic a wave responses as unbleached control mice"}, {"measurement": "OCT imaging of the retina", "setting": "Abca4^−/−Rdh8^−/− mice [1]; 0.5 mg", "value": "clear intact ONL image"}, {"measurement": "average ONL thickness", "setting": "Abca4^−/−Rdh8^−/− mice [1]; 0.5 mg", "value": "51.1±5.8", "unit": "μm"}, {"measurement": "ERG scotopic a wave responses", "setting": "Abca4^−/−Rdh8^−/− mice [1]; 0.5 mg, dark 7 days after bleaching", "value": "same ERG scotopic a wave responses as unbleached control mice"}, {"measurement": "inhibition of the recovery of visual chromophore", "setting": "WT mice; 0.1 mg", "value": "about 40%"}, {"measurement": "inhibition of the recovery of visual chromophore", "setting": "WT mice; 0.2 mg", "value": "~80", "unit": "%"}, {"measurement": "recovered 11-cis-retinal", "setting": "WT mice; 0.2 mg, day 3 after administration", "value": "61±2.2", "unit": "%"}, {"measurement": "inhibitory effect on 11-cis-retinal regeneration", "setting": "WT mice; 0.2 mg, day 7", "value": "nearly disappeared"}, {"measurement": "recovery of 11-cis-retinal in the eye, of the pre-bleached level", "setting": "WT mice; 0.2 mg, light 2 h after administration", "value": "50±13", "unit": "%"}, {"measurement": "recovery of 11-cis-retinal in the eye, of the pre-bleached level", "setting": "WT mice; 0.2 mg, light 24 h after administration", "value": "22±5.0", "unit": "%"}, {"measurement": "inhibition of the recovery of visual chromophore", "setting": "WT mice; 0.5 mg", "value": "~95", "unit": "%"}, {"measurement": "recovery of 11-cis-retinal", "setting": "WT mice; 0.5 mg, 7 days after administration", "value": "56±9.1", "unit": "%"}, {"measurement": "time point with the strongest inhibition of the retinoid cycle", "setting": "WT mice; 0.1 to 0.5 mg, gavage 2 h to 7 days before light", "value": 24, "unit": "h"}, {"measurement": "duration of inhibition of the retinoid cycle", "setting": "WT mice; gavage 2 h to 7 days before light, 11-cis-retinal 6 h after bleaching", "value": "more than 7 days"}, {"measurement": "pIC50", "setting": "RPE65", "value": "> 5.00"}, {"measurement": "protection of ONL (averaged ONL thickness by OCT)", "setting": "Abca4^−/−Rdh8^−/− mice [2]", "value": "protected"}]}, {"smiles": "CC(/C=C/C=C(/C=C/C1=CCCCC1)C(C)(C)C)=C\\CN", "note": "[QEA-B-001-NH2]", "values": [{"measurement": "prevention of light-induced retinal degeneration", "setting": "Abca4^−/−Rdh8^−/− mice [1]; gavaged with 1 mg, dark 24 h, ~10,000 lux 1 h, OCT", "value": "inability to prevent"}, {"measurement": "inhibition of RPE65", "setting": "RPE65", "value": "modest or non-inhibitor; also recorded: did not inhibit"}, {"measurement": "pIC50", "setting": "RPE65", "value": "< 3.70"}]}]}
